Experimental data taken from patent US5202309A, “Antibiotic cyclopeptide fermentation product” (Merck & Co., Inc., priority 1991, dated 1993).
Numbered stars: 1 amine (or outer) side, 2 acyl side, 3 side chain; on linkers, the order of the positions; unused ones are H or OH. Bridge positions count the residues as written; N and C are the ends. Square brackets hold non-standard residues; d marks the D form. Peptide text beside a SMILES is read from it. * marks the point of attachment. Orn(4R-OH,5R-OH) = O=C([C@H](C[C@@H](O)[C@@H](O)N[*:3])N[*:1])[*:2]; Tetradecanoyl(10R,12S-Me2) = CC[C@H](C)C[C@H](C)CCCCCCCCC(=O)*; hTyr(3S-OH,4S-OH) = N[C@H](C(=O)O)[C@H](O)[C@@H](O)c1ccc(O)cc1; Gln(3R-OH) = NC(=O)C[C@@H](O)[C@H](N)C(=O)O; Pro(3S-OH) = O=C(O)[C@H]1NCC[C@@H]1O; Hyp = O=C(O)[C@@H]1C[C@@H](O)CN1

Experiments:
Candida parapsilosis = assay: Microbroth dilution assay in YNBD, minimum fungicidal concentration; format: cell-based; conditions: Candida parapsilosis MY 1010, 35° C. 24 hours, then Sabouraud dextrose agar 24 hours at 28° C.
Protocol: (§1) The compounds were further diluted to 256 μg/ml in YNBD. […] After incubation, each culture was diluted in sterile water to yield a final concentration of 1-5×10^6 colony forming units (CFU)/ml.

Candida albicans = assay: as above; format: cell-based; conditions: then Sabouraud dextrose agar 24 hours at 28° C.
Protocol: as §1

## CC[C@H](C)C[C@H](C)CCCCCCCCC(=O)N[C@H]1C[C@@H](O)[C@@H](O)NC(=O)[C@@H]2[C@@H](O)CCN2C(=O)[C@H]([C@H](O)CC(N)=O)NC(=O)[C@H]([C@H](O)[C@@H](O)c2ccc(O)cc2)NC(=O)[C@@H]2C[C@@H](O)CN2C(=O)[C@H]([C@@H](C)O)NC1=O [Compound I, 1-[4,5-dihydroxy-N^2-(10,12-dimethyl-1-oxotetradecyl)ornithine]-5-(3-hydroxy-glutamine)-6-(3-hydroxyproline)echinocandin B] ({Tetradecanoyl(10R,12S-Me2)}-[Orn(4R-OH,5R-OH)]T[Hyp][hTyr(3S-OH,4S-OH)][Gln(3R-OH)][Pro(3S-OH)]; lactam 1-C)
Candida parapsilosis
  Minimum Fungicidal Concentration: 8.0 µg/mL
Candida albicans; Candida albicans MY 1208, 35° C. 24 hours
  Minimum Fungicidal Concentration: 0.5 µg/mL
Candida albicans; Candida albicans MY 1783, 35° C. 24 hours
  Minimum Fungicidal Concentration: 0.5 µg/mL
